Legend:
Type in all cases: in vitro ADME
[1] = target: T1, CYP2C8 (Homo sapiens, UniProt P10632); assay: CYP2C8 inhibition (amodiaquine N-deethylase) in human liver microsomes, substrate cocktail LC-MS/MS
T1 construct: the incubation mixtures containing pooled HLMs (0.25 mg/mL, H2630, Xenotech); tissue Xenotech H2630; host or cells: pooled human liver microsomes
T1 sequence (P10632 1-490): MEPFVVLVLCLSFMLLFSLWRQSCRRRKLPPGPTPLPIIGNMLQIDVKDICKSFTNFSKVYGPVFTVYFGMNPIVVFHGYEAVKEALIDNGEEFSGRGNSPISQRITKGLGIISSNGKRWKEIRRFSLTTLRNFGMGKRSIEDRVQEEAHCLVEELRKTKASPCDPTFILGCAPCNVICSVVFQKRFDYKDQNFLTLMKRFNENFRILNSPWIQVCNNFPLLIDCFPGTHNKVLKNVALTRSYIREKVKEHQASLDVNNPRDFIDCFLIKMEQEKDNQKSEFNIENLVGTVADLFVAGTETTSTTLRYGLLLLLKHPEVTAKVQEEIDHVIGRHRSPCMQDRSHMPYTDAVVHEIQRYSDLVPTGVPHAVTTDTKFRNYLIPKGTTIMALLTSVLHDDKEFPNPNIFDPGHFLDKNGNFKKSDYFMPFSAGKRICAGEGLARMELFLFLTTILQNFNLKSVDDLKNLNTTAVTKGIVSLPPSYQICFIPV
Description: The inhibitory effects of two selaginellins on the metabolism of ten P450 probe substrates were evaluated using previously reported method with minor modification. Phenacetin O-deethylase, coumarin 7-hydroxylase, bupropion 4-hydroxylase, amodiaquine N-deethylase, tolbutamide 4-hydroxylase, omeprazole 5-hydroxylase, dextromethorphan O-demethylase, chlorzoxazone 6-hydroxylase and midazolam 1′-hydroxylase activities were determined as probe activities for CYP1A2, CYP2A6, CYP2B6, CYP2C8, CYP2C9, CYP2C19, CYP2D6, CYP2E1 and […], respectively, using substrate cocktail incubation and tandem mass spectrometry (Table 2). Selaginellins were dissolved in methanol. The final concentrations of organic solvent (methanol) for the cocktail incubation conditions in all experiments were 1.0% (v/v). In brief, the incubation mixtures containing pooled HLMs (0.25 mg/mL, H2630, Xenotech), P450 probe substrate cocktail, and inhibitor (0, 0.5, 2, 5, 20 and 50 μM) were preincubated at 37 °C for 5 min. The reaction was initiated by adding of the NADPH generating system (3.3 mM G6P, 1.3 mM β-NADP+, 3.3 mM MgCl2, and 1 unit/mL G6PDH) followed by incubation for 15 min at 37 °C. Next, each incubation was stopped by addition of 50 μL ice-cold acetonitrile containing terfenadine (IS). After mixing and centrifugation, aliquots were analyzed by liquid chromatography-tandem mass spectrometry (LC-MS/MS) as previous described. The CYP2J2 inhibitory effects of two selaginellins were also evaluated in pooled HLMs using previously reported method. In brief, the incubation reaction mixtures contained 0.25 mg/mL HLMs, astemizole (1 μM) and inhibitor (0.5–50 μM) in […] phosphate buffer (pH 7.4). The reaction was initiated by the addition of NADPH-generating system and further incubated for 15 min. After reaction termination with cold acetonitrile containing 5 ng/mL terfenadine and centrifugation, aliquots were injected into a liquid chromatography-tandem mass spectrometry system (LC-MS/MS) as described previously (Table 2). All microsomal incubations were performed in triplicate. […]

[2] = target: T2, CYP2C19 (Homo sapiens, UniProt P33261); assay: CYP2C19 inhibition (omeprazole 5-hydroxylase) in human liver microsomes, substrate cocktail LC-MS/MS
T2 construct: the incubation mixtures containing pooled HLMs (0.25 mg/mL, H2630, Xenotech); tissue Xenotech H2630; host or cells: pooled human liver microsomes
T2 sequence (P33261 whole entry): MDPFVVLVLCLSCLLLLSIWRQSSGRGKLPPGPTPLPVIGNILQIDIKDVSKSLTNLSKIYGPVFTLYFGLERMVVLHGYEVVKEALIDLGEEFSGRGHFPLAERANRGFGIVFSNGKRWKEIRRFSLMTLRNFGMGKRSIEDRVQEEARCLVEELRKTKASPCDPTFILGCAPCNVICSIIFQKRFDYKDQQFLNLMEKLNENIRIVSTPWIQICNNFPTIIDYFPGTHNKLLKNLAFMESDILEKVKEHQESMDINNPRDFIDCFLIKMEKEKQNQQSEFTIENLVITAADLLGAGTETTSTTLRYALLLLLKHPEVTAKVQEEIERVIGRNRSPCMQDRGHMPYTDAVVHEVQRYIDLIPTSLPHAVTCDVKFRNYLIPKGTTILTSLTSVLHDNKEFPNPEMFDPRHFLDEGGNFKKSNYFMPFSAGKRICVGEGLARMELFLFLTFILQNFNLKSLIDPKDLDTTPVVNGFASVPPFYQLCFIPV
Description: (§1) The inhibitory effects of two selaginellins on the metabolism of ten P450 probe substrates were evaluated using previously reported method with minor modification. Phenacetin O-deethylase, coumarin 7-hydroxylase, bupropion 4-hydroxylase, amodiaquine N-deethylase, tolbutamide 4-hydroxylase, omeprazole 5-hydroxylase, dextromethorphan O-demethylase, chlorzoxazone 6-hydroxylase and midazolam 1′-hydroxylase activities were determined as probe activities for CYP1A2, CYP2A6, CYP2B6, CYP2C8, CYP2C9, CYP2C19, CYP2D6, CYP2E1 and […], respectively, using substrate cocktail incubation and tandem mass spectrometry (Table 2). Selaginellins were dissolved in methanol. The final concentrations of organic solvent (methanol) for the cocktail incubation conditions in all experiments were 1.0% (v/v). In brief, the incubation mixtures containing pooled HLMs (0.25 mg/mL, H2630, Xenotech), P450 probe substrate cocktail, and inhibitor (0, 0.5, 2, 5, 20 and 50 μM) were preincubated at 37 °C for 5 min. […] After mixing and centrifugation, aliquots were analyzed by liquid chromatography-tandem mass spectrometry (LC-MS/MS) as previous described. The CYP2J2 inhibitory effects of two selaginellins were also evaluated in pooled HLMs using previously reported method. […]

[3] = target: T3, CYP2A6 (Homo sapiens, UniProt P11509); assay: CYP2A6 inhibition (coumarin 7-hydroxylase) in human liver microsomes, substrate cocktail LC-MS/MS
T3 construct: the incubation mixtures containing pooled HLMs (0.25 mg/mL, H2630, Xenotech); tissue Xenotech H2630; host or cells: pooled human liver microsomes
T3 sequence (P11509 1-494): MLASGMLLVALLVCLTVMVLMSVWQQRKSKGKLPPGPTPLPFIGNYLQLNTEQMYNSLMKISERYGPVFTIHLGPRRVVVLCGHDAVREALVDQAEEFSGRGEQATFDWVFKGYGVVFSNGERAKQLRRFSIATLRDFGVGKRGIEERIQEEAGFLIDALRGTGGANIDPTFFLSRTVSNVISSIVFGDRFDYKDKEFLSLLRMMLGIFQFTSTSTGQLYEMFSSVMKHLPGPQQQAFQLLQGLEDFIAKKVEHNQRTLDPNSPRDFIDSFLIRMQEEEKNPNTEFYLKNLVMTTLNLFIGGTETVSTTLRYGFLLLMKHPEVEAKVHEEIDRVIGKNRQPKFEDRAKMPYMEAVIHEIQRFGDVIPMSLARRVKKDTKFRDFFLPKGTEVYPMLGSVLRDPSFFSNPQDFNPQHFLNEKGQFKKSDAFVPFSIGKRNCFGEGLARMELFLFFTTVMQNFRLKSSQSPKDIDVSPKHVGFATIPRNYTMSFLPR
Description: as §1

[4] = target: T4, CYP2J2 (Homo sapiens, UniProt P51589); assay: CYP2J2 inhibition (astemizole O-demethylation) in pooled human liver microsomes, LC-MS/MS; settings: IC50 P450 isoform 2J2, pooled HLMs 0.25 mg/mL, astemizole 1.0 μM
T4 construct: from tissue; host or cells: pooled human liver microsomes
T4 sequence (P51589 1-502): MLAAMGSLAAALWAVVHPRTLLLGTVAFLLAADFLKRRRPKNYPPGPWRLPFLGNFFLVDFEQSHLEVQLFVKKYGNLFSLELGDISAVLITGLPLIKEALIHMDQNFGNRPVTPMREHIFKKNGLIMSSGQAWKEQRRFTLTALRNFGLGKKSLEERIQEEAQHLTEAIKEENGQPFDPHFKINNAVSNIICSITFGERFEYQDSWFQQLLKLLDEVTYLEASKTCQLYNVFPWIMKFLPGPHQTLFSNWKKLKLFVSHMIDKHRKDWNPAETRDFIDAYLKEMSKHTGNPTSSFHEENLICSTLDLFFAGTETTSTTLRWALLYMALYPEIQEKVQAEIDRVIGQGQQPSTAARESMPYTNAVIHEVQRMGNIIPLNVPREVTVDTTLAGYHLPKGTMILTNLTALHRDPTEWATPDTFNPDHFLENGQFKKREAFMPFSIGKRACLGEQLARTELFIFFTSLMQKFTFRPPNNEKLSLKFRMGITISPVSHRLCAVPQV
Description: as §1

COc1ccc(C(=C2C=CC(=O)C=C2)c2c(-c3ccc(O)cc3)ccc(CO)c2C#Cc2ccc(O)cc2)cc1 [Selaginellin M]
IC50 [1]: 900 nM
IC50 [2]: 16100 nM
IC50 [3]: > 50000 nM
IC50 [4]: 2700 nM

O=C1C=CC(=C(c2ccc(O)cc2)c2c(-c3ccc(O)cc3)ccc(CO)c2C#Cc2ccc(O)cc2)C=C1 [Selaginellin]
IC50 [1]: 500 nM
inhibitory potential for CYP2C8-mediated amodiaquine O-demethylation (class) ([1]; human liver microsomes, class by Krippendorff's criteria): high (high (IC50 < 1 μM))
IC50 [2]: 10000 nM
IC50 [3]: > 50000 nM
IC50 [4]: 800 nM

Reference: paper PMC6151550, “Inhibitory Effect of Selaginellins from Selaginella tamariscina (Beauv.) Spring against Cytochrome P450 and Uridine 5′-Diphosphoglucuronosyltransferase Isoforms on Human Liver Microsomes” (Molecules : A Journal of Synthetic Chemistry and Natural …, 2017)
